Measured values published in ChEMBL document CHEMBL5500406, “Discovery of Novel Proteolysis-Targeting Chimera Molecules as Degraders of Programmed Cell Death-Ligand 1 for Breast Cancer Therapy” (J Med Chem, 2024).
pKd: −log10 of the molar value. Calls of active or inactive are those of the source. The rule behind the calls is not given here.

Columns and labels:
[1] = target: T1, Protein cereblon (Mus musculus, UniProt Q8C7D2); assay: Binding affinity to mouse CRBN assessed as dissociation constant incubated for 15 mins by MST assay
T1 sequence (Q8C7D2 whole entry): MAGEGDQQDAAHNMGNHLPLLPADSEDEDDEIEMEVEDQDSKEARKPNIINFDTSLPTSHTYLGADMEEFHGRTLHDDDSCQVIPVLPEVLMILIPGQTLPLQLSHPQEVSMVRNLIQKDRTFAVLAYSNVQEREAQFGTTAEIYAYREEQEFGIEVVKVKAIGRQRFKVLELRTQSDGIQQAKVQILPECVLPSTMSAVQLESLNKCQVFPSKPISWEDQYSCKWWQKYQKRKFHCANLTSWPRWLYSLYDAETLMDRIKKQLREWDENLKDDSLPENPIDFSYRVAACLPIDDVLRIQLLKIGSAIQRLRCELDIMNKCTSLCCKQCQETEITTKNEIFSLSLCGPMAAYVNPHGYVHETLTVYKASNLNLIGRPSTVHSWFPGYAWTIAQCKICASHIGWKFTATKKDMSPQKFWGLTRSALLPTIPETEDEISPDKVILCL

[2] = tested on: 4T1; assay: Antitumor activity against mouse 4T1 cells allografted in BALB/c mouse assessed as reduction in tumor volume at 60 mg/kg, ip qd for 15 days in presence of Paclitaxel; assay type: functional, organism-based; conditions: time 15.0 day
[3] = tested on: 4T1; assay: In vivo PROTAC activity at CRBN/PD-L1 in mouse 4T1 cells allografted in BALB/c mouse assessed as protein degradation at 30 to 60 mg/kg, ip qd for 15 days by IHC analysis; assay type: functional, organism-based; conditions: dose 30-60 mg/kg, time 15.0 day
[4] = tested on: 4T1; assay: Antitumor activity against mouse 4T1 cells allografted in BALB/c mouse at 30 mg/kg, ip qd for 15 days relative to control; assay type: functional; conditions: 4T1, 360 h, time 15 day, read-out: TGI
[5] = Toxicity in BALB/c mouse allografted with mouse 4T1 cells assessed as pathological change in spleen at 30 to 60 mg/kg, ip qd for 15 days by H and E staining based analysis; assay type: organism-based; conditions: in vivo, 360 h, dose 30-60 mg/kg, time 15 day
[6] = Toxicity in BALB/c mouse allografted with mouse 4T1 cells assessed as pathological change in spleen at 60 mg/kg, ip qd for 15 days in presence of Paclitaxel by H and E staining based analysis; assay type: organism-based; conditions: in vivo, 360 h, time 15 day
[7] = Toxicity in BALB/c mouse allografted with mouse 4T1 cells assessed as abnormality in biochemical analysis at 60 mg/kg, ip qd for 15 days in presence of Paclitaxel; assay type: organism-based; conditions: in vivo, 360 h, time 15 day
[8] = Toxicity in BALB/c mouse allografted with mouse 4T1 cells assessed as body weight loss at 60 mg/kg, ip qd for 15 days in presence of Paclitaxel; assay type: organism-based; conditions: in vivo, 360 h, time 15 day
[9] = target: T2, Protein cereblon/Programmed cell death 1 ligand 1 (Mus musculus) (UniProt Q9EP73+Q8C7D2); assay: PROTAC activity at CRBN/PD-L1 in mouse 4T1 cells assessed as protein degradation at 0.312 uM incubated for 24 hrs by Western blot analysis relative to control; assay type: cell-based
T2 sequence (Q9EP73 19-290 limits assumed, one chain of several): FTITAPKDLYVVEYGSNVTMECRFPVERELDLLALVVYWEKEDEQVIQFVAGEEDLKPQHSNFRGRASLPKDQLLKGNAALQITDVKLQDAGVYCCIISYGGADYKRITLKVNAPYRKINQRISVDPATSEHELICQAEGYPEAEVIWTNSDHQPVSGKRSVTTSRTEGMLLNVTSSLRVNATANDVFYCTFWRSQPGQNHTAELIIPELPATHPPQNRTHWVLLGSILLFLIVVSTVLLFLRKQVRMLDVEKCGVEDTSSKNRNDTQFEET

[10] = tested on: 4T1; assay: Antitumor activity against mouse 4T1 cells assessed as increase in cell mortality rate at 0.312 uM pretreated with compound followed by co-culture of CD3/CD28-activated PBMC cells measured after 24 hrs by LDH assay relative to control; assay type: functional
[11] = target: T2, Protein cereblon/Programmed cell death 1 ligand 1 (Mus musculus); assay: PROTAC activity at CRBN/PD-L1 in mouse 4T1 cells assessed as reduction in green fluorescence in cell membrane at 0.312 uM incubated for 24 hrs by immunofluorescence analysis; assay type: cell membranes
[12] = Toxicity in BALB/c mouse allografted with mouse 4T1 cells assessed as pathological change in lung at 60 mg/kg, ip qd for 15 days in presence of Paclitaxel by H and E staining based analysis; assay type: organism-based; conditions: in vivo, 360 h, time 15 day
[13] = tested on: 4T1; assay: Antitumor activity against mouse 4T1 cells assessed as increase in cell mortality rate at 0.078 uM pretreated with compound followed by co-culture of CD3/CD28-activated PBMC cells measured after 24 hrs by LDH assay relative to control; assay type: functional
[14] = Toxicity in BALB/c mouse allografted with mouse 4T1 cells assessed as abnormality in routine blood analysis at 60 mg/kg, ip qd for 15 days in presence of Paclitaxel; assay type: organism-based; conditions: in vivo, 360 h, time 15 day
[15] = Toxicity in BALB/c mouse allografted with mouse 4T1 cells assessed as pathological change in lung at 30 to 60 mg/kg, ip qd for 15 days by H and E staining based analysis; assay type: organism-based; conditions: in vivo, 360 h, dose 30-60 mg/kg, time 15 day
[16] = Volume of distribution at steady state in Sprague-Dawley rat at 3 mg/kg, iv measured for 24 hrs by LC-MS/MS analysis; assay type: ADME, organism-based; conditions: in vivo, read-out: Vdss
[17] = tested on: 4T1; assay: Antitumor activity against mouse 4T1 cells allografted in BALB/c mouse assessed as increase in GzmB mRNA level in tumor at 60 mg/kg, ip qd for 15 days by qRT-PCR analysis; assay type: functional, organism-based; conditions: time 15.0 day
[18] = tested on: 4T1; assay: Antitumor activity against mouse 4T1 cells allografted in BALB/c mouse assessed as increase in CD4+ T cells infiltration in tumor at 30 to 60 mg/kg, ip qd for 15 days by IHC analysis; assay type: functional, organism-based; conditions: dose 30-60 mg/kg, time 15.0 day
[19] = Half life in Sprague-Dawley rat at 3 mg/kg, iv measured for 24 hrs by LC-MS/MS analysis; assay type: ADME, organism-based; conditions: in vivo
[20] = Toxicity in BALB/c mouse allografted with mouse 4T1 cells assessed as body weight loss at 30 to 60 mg/kg, ip qd for 15 days; assay type: organism-based; conditions: in vivo, 360 h, dose 30-60 mg/kg, time 15 day
[21] = Toxicity in BALB/c mouse allografted with mouse 4T1 cells assessed as pathological change in heart at 30 to 60 mg/kg, ip qd for 15 days by H and E staining based analysis; assay type: organism-based; conditions: in vivo, 360 h, dose 30-60 mg/kg, time 15 day
[22] = target: T2, Protein cereblon/Programmed cell death 1 ligand 1 (Mus musculus); assay: PROTAC activity at CRBN/PD-L1 in mouse 4T1 cells assessed as protein degradation at 0.312 uM incubated for 24 hrs in presence of MG132 by Western blot analysis; assay type: cell-based
[23] = Toxicity in BALB/c mouse allografted with mouse 4T1 cells assessed as pathological change in liver at 60 mg/kg, ip qd for 15 days in presence of Paclitaxel by H and E staining based analysis; assay type: organism-based; conditions: in vivo, 360 h, time 15 day
[24] = target: T2, Protein cereblon/Programmed cell death 1 ligand 1 (Mus musculus); assay: PROTAC activity at CRBN/PD-L1 in mouse 4T1 cells assessed as protein degradation at 0.078 to 2.5 uM incubated for 24 hrs by Western blot analysis; assay type: cell-based; conditions: dose 0.078-2.5 µM
[25] = tested on: 4T1; assay: Antitumor activity against mouse 4T1 cells allografted in BALB/c mouse assessed as increase in CD8+ T cells infiltration in tumor at 30 to 60 mg/kg, ip qd for 15 days by IHC analysis; assay type: functional, organism-based; conditions: dose 30-60 mg/kg, time 15.0 day
[26] = Cytotoxicity against BALB/c mouse PBMC cells at <=0.312 uM incubated for 48 hrs by MTT assay; assay type: toxicity, cell-based
[27] = tested on: 4T1; assay: Antitumor activity against mouse 4T1 cells allografted in BALB/c mouse assessed as increase in Prf1 mRNA level in tumor at 60 mg/kg, ip qd for 15 days by qRT-PCR analysis; assay type: functional, organism-based; conditions: time 15.0 day

COc1nc(OCc2cccc(-c3ccccc3)c2C)ccc1CNCCNC(=O)CCCCCCCCNC(=O)COc1ccc(C2CCC(=O)NC2=O)cc1 (configuration not stated)
pKd [1]: 3.88
Activity [2]: Active
Activity [3]: Active
inhibition in vivo at 30 mg/kg [4]: 75%
Activity [5]: Non-Toxic
Activity [6]: Non-Toxic
Activity [7]: Non-Toxic
Activity [8]: Non-Toxic
Emax [9]: 85%
Activity [10]: 72.3%
Activity [11]: Active
Activity [12]: Non-Toxic
Activity [13]: 31.8%
Activity [14]: Non-Toxic
Activity [15]: Non-Toxic
Vd [16]: 23 L/kg
Activity [17]: Active
Activity [18]: Active
half-life [19]: 57.1 min
Activity [20]: Non-Toxic
Activity [21]: Non-Toxic
Activity [22]: inactive
Activity [23]: Non-Toxic
Activity [24]: Active
Activity [25]: Active
Activity [26]: Non-Toxic
Activity [27]: Active
